Assay results as given in patent US8455475B2 (Gruenenthal GmbH, priority 2009, dated 2013).

Key:
[1] = target: T1, human B1R (bradykinin receptor 1) (Homo sapiens, UniProt P46663); assay: FLIPR Ca2+ assay (Fluo-4) on CHO K1 cells stably transfected with the human B1R gene (hB1R cells): % inhibition at 10 μM / IC50, agonist Lys-Des-Arg9-bradykinin; type: cell-based; conditions: for inhibition at 10 µM: CHO-K1, human B1R
T1 construct: expressed in transfected cells; host or cells: CHO K1 cells
T1 sequence (P46663 1-353): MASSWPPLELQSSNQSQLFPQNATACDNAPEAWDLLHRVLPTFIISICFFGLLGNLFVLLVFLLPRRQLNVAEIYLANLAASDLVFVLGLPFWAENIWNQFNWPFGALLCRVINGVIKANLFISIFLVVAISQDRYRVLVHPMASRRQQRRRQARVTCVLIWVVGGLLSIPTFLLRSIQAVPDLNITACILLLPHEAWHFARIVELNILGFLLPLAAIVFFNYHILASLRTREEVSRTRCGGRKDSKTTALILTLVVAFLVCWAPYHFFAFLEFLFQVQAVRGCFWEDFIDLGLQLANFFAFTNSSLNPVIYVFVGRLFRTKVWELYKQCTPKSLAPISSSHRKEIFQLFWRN
Procedure, shortened: (§1)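 Stable CHO K1 lines, Fluo-4 dye, probenecid-containing buffer. Cpd 10 μM or dose range, 10–20 min, then EC80 agonist (h: Lys-Des-Arg9-BK; r: Des-Arg9-BK). Readout peak FC; % inhibition vs max; IC50 from n=2–3, N≥2.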

[2] = target: T2, rat B1R (bradykinin receptor 1) (Rattus norvegicus, UniProt P97583); assay: FLIPR Ca2+ assay (Fluo-4) on CHO K1 cells stably transfected with the B1R gene of the rat (rB1R cells): % inhibition at 10 μM / IC50, agonist Des-Arg9-bradykinin; type: cell-based; conditions: for inhibition at 10 µM: CHO-K1, rat B1R
T2 construct: expressed in transfected cells; host or cells: CHO K1 cells
T2 sequence (P97583 1-337): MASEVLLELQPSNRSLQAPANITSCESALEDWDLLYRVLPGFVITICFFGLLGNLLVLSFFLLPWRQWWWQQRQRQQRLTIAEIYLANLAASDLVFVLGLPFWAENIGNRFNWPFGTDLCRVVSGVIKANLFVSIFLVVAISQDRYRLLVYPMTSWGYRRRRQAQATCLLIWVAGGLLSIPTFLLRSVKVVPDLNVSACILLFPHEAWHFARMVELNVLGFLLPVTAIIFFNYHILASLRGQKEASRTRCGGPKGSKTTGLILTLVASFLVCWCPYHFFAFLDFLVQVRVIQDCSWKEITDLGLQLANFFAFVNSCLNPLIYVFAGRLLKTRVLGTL
Procedure, shortened: as §1

inhibition at 10 µM [1]	inhibition at 10 µM [2]	% Inhibition (human B1R) at 10 μM [1]	% Inhibition (rat B1R) at 10 μM [2]	SMILES
97%	98%			O=C(NC1CCc2ccc(C(=O)N3CCC4(CC3)CCN(c3ccncc3)CC4)cc21)c1ccc(Cl)s1 (centres unmarked) [Ind_CC-005, 5-chloro-N-[6-(9-pyridin-4-yl-3,9-diazaspiro[5.5]undecane-3-carbonyl)-2,3-dihydro-1H-inden-1-yl]-thiophene-2-carboxylic acid amide]
93%	101%			CN(C(=O)c1ccccn1)C1CCc2ccc(C(=O)N3CCC4(CC3)CCN(c3ccncc3)CC4)cc21 (centres unmarked) [Ind_CC-014, N-methyl-N-[6-(9-pyridin-4-yl-3,9-diazaspiro[5.5]undecane-3-carbonyl)-2,3-dihydro-1H-inden-1-yl]-pyridine-2-carboxylic acid amide]
100%	102%			CN(C(=O)c1sccc1Cl)C1CCc2ccc(C(=O)N3CCC4(CC3)CCN(c3ccncc3)CC4)cc21 (centres unmarked) [Ind_CC-016, 3-chloro-N-methyl-N-[6-(9-pyridin-4-yl-3,9-diazaspiro[5.5]undecane-3-carbonyl)-2,3-dihydro-1H-inden-1-yl]-thiophene-2-carboxylic acid amide]
99%	102%			CN(C(=O)c1ccc(Cl)s1)C1CCc2ccc(C(=O)N3CCC4(CC3)CCN(c3ccncc3)CC4)cc21 (centres unmarked) [Ind_CC-017, 5-chloro-N-methyl-N-[6-(9-pyridin-4-yl-3,9-diazaspiro[5.5]undecane-3-carbonyl)-2,3-dihydro-1H-inden-1-yl]-thiophene-2-carboxylic acid amide]
98%	98%			CN(C(=O)c1ccc(Cl)cc1Cl)C1CCc2ccc(C(=O)N3CCC4(CC3)CCN(c3ccncc3)CC4)cc21 (centres unmarked) [Ind_CC-018, 2,4-dichloro-N-methyl-N-[6-(9-pyridin-4-yl-3,9-diazaspiro[5.5]undecane-3-carbonyl)-2,3-dihydro-1H-inden-1-yl]-benzamide]
99%	95%			CN(C(=O)Cc1ccccc1Cl)C1CCc2ccc(C(=O)N3CCC4(CC3)CCN(c3ccncc3)CC4)cc21 (centres unmarked) [Ind_CC-019, 2-(2-chlorophenyl)-N-methyl-N-[6-(9-pyridin-4-yl-3,9-diazaspiro[5.5]undecane-3-carbonyl)-2,3-dihydro-1H-inden-1-yl]-acetamide]
89%	88%			CN(C(=O)/C=C/c1ccccc1Cl)C1CCc2ccc(C(=O)N3CCC4(CC3)CCN(c3ccncc3)CC4)cc21 (centres unmarked) [Ind_CC-020, (E)-3-(2-chlorophenyl)-N-methyl-N-[6-(9-pyridin-4-yl-3,9-diazaspiro[5.5]undecane-3-carbonyl)-2,3-dihydro-1H-inden-1-yl]-acrylamide]
		98%	93%	CN(C(=O)NCc1ccccc1Cl)C1CCc2ccc(C(=O)N3CCC4(CC3)CCN(c3ccncc3)CC4)cc21 (centres unmarked) [Ind_CC-023]

Continued, molecule first:

SMILES	inhibition at 10 µM [1]	inhibition at 10 µM [2]	% Inhibition (human B1R) at 10 μM [1]	% Inhibition (rat B1R) at 10 μM [2]
O=C(NC1CCc2ccc(C(=O)N3CCC4(CC3)CCN(c3ccncc3)CC4)cc21)c1ccc(Cl)cc1Cl (centres unmarked) [Ind_CC-006, 2,4-dichloro-N-[6-(9-pyridin-4-yl-3,9-diazaspiro[5.5]undecane-3-carbonyl)-2,3-dihydro-1H-inden-1-yl]-benzamide]	98%	98%		
O=C(Cc1ccccc1Cl)NC1CCc2ccc(C(=O)N3CCC4(CC3)CCN(c3ccncc3)CC4)cc21 (centres unmarked) [Ind_CC-007, 2-(2-chlorophenyl)-N-[6-(9-pyridin-4-yl-3,9-diazaspiro[5.5]undecane-3-carbonyl)-2,3-dihydro-1H-inden-1-yl]-acetamide]	99%	102%		
O=C(/C=C/c1ccccc1Cl)NC1CCc2ccc(C(=O)N3CCC4(CC3)CCN(c3ccncc3)CC4)cc21 (centres unmarked) [Ind_CC-008, (E)-3-(2-chlorophenyl)-N-[6-(9-pyridin-4-yl-3,9-diazaspiro[5.5]undecane-3-carbonyl)-2,3-dihydro-1H-inden-1-yl]-acrylamide]	72%	74%		
O=C(NC1CCc2ccc(C(=O)N3CCC4(CC3)CCN(c3ccncc3)CC4)cc21)C(c1ccccc1)c1ccccc1Cl (centres unmarked) [Ind_CC-009, 2-(2-chlorophenyl)-2-phenyl-N-[6-(9-pyridin-4-yl-3,9-diazaspiro[5.5]undecane-3-carbonyl)-2,3-dihydro-1H-inden-1-yl]-acetamide]	87%	99%		
O=C(c1ccc2c(c1)C(NS(=O)(=O)c1ccccc1Cl)CC2)N1CCC2(CC1)CCN(c1ccncc1)CC2 (centres unmarked) [Ind_CC-010, 2-chloro-N-[6-(9-pyridin-4-yl-3,9-diazaspiro[5.5]undecane-3-carbonyl)-2,3-dihydro-1H-inden-1-yl]-benzenesulfonic acid amide]	97%	100%		
O=C(Nc1ccc(Cl)c(Cl)c1)NC1CCc2ccc(C(=O)N3CCC4(CC3)CCN(c3ccncc3)CC4)cc21 (centres unmarked) [Ind_CC-011]			36%	76%
O=C(NCc1ccccc1Cl)NC1CCc2ccc(C(=O)N3CCC4(CC3)CCN(c3ccncc3)CC4)cc21 (centres unmarked) [Ind_CC-012, 1-[(2-chlorophenyl)-methyl]-3-[6-(9-pyridin-4-yl-3,9-diazaspiro[5.5]undecane-3-carbonyl)-2,3-dihydro-1H-inden-1-yl]-urea]	100%	100%		
COc1cc(C)c(C(=O)NC2CCc3ccc(C(=O)N4CCC5(CC4)CCN(c4ccncc4)CC5)cc32)c(C)c1 (centres unmarked) [Ind_CC-013, 4-methoxy-2,6-dimethyl-N-[6-(9-pyridin-4-yl-3,9-diazaspiro[5.5]undecane-3-carbonyl)-2,3-dihydro-1H-inden-1-yl]-benzamide]	68%	71%		
CN(C(=O)c1ccccc1C(F)(F)F)C1CCc2ccc(C(=O)N3CCC4(CC3)CCN(c3ccncc3)CC4)cc21 (centres unmarked) [Ind_CC-015, N-methyl-N-[6-(9-pyridin-4-yl-3,9-diazaspiro[5.5]undecane-3-carbonyl)-2,3-dihydro-1H-inden-1-yl]-2-(trifluoromethyl)-benzamide]	100%	101%		
CN(C(=O)C(c1ccccc1)c1ccccc1Cl)C1CCc2ccc(C(=O)N3CCC4(CC3)CCN(c3ccncc3)CC4)cc21 (centres unmarked) [Ind_CC-021, 2-(2-chlorophenyl)-N-methyl-2-phenyl-N-[6-(9-pyridin-4-yl-3,9-diazaspiro[5.5]undecane-3-carbonyl)-2,3-dihydro-1H-inden-1-yl]-acetamide]	94%	96%		
CN(C(=O)Nc1ccc(Cl)c(Cl)c1)C1CCc2ccc(C(=O)N3CCC4(CC3)CCN(c3ccncc3)CC4)cc21 (centres unmarked) [Ind_CC-022, 3-(3,4-dichlorophenyl)-1-methyl-1-[6-(9-pyridin-4-yl-3,9-diazaspiro[5.5]undecane-3-carbonyl)-2,3-dihydro-1H-inden-1-yl]-urea]	91%	75%		
O=C(NC1CCc2ccc(C(=O)N3CCC4(CC3)CCN(c3ccncc3)C4)cc21)c1sccc1Cl (centres unmarked) [Ind_CC-042, 3-chloro-N-[6-(2-pyridin-4-yl-2,8-diazaspiro[4.5]decane-8-carbonyl)-2,3-dihydro-1H-inden-1-yl]-thiophene-2-carboxylic acid amide]	98%	101%		
O=C(NC1CCc2ccc(C(=O)N3CCC4(CC3)CCN(c3ccncc3)C4)cc21)c1ccc(Cl)s1 (centres unmarked) [Ind_CC-043, 5-chloro-N-[6-(2-pyridin-4-yl-2,8-diazaspiro[4.5]decane-8-carbonyl)-2,3-dihydro-1H-inden-1-yl]-thiophene-2-carboxylic acid amide]	79%	88%		
O=C(NC1CCc2ccc(C(=O)N3CCC4(CC3)CCN(c3ccncc3)C4)cc21)c1ccc(Cl)cc1Cl (centres unmarked) [Ind_CC-044, 2,4-dichloro-N-[6-(2-pyridin-4-yl-2,8-diazaspiro[4.5]decane-8-carbonyl)-2,3-dihydro-1H-inden-1-yl]-benzamide]	97%	100%		
O=C(Cc1ccccc1Cl)NC1CCc2ccc(C(=O)N3CCC4(CC3)CCN(c3ccncc3)C4)cc21 (centres unmarked) [Ind_CC-045, 2-(2-chlorophenyl)-N-[6-(2-pyridin-4-yl-2,8-diazaspiro[4.5]decane-8-carbonyl)-2,3-dihydro-1H-inden-1-yl]-acetamide]	100%	101%		
O=C(/C=C/c1ccccc1Cl)NC1CCc2ccc(C(=O)N3CCC4(CC3)CCN(c3ccncc3)C4)cc21 (centres unmarked) [Ind_CC-046, (E)-3-(2-chlorophenyl)-N-[6-(2-pyridin-4-yl-2,8-diazaspiro[4.5]decane-8-carbonyl)-2,3-dihydro-1H-inden-1-yl]-acrylamide]	98%	68%		
O=C(Nc1ccc(Cl)c(Cl)c1)NC1CCc2ccc(C(=O)N3CCC4(CC3)CCN(c3ccncc3)C4)cc21 (centres unmarked) [Ind_CC-047]			94%	60%
